Data reported in patent publication US4575560A, “Insecticidal diaminoguanidine hydrazone compounds” (American Cyanamid Company, priority 1985, dated 1986).
Converted amounts (≈) assume the structure as drawn. Counter-ions that a name gives are not always drawn.

What was measured:
Southern Armyworm = experiment: Southern armyworm test, third-instar larvae on treated Sieva lima bean leaves; assay type: in vivo, Spodoptera eridania (Cramer); conditions: for Mortality Rating Southern Armyworm: third-instar larvae; for LC50: Spodoptera eridania, read-out: LC50 Southern Armyworm
Outline: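 Sieva lima bean plants, primary leaves expanded to 1.91 cm, were dipped with agitation for three seconds in test material dissolved in 65% acetone, with further dilutions in acetone, then air-dried in a hood. A treated leaf was placed in a 9 cm petri dish on moist filter paper with 10 third-instar Spodoptera eridania larvae about 1 cm long. Dishes were covered and kept at 80° F. and 50% r.h. Mortality and feeding were assessed after two days.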

[1] = tested on: Tobacco Budworm 3rd Instar; experiment: Tobacco budworm secondary test, third-instar larvae on treated cotton cotyledons; assay type: in vivo, Heliothis virescens (Fabricus)
Protocol: Three cotton plants with just expanded cotyledons are dipped in 1000 ppm solution and placed in the hood to dry. When dry, each cotyledon is cut in half, and 10 are each placed in a 28 g plastic medicine cup containing a 1.25 cm dental wick saturated with water, and one third-instar budworm larva is added. The cup is capped and held for three days at 80° F., 50% relative humidity, after which mortality counts are made.

Tobacco Budworm = experiment: Tobacco budworm LC50 and FD50 (instar not stated); assay type: in vivo, Heliothis virescens (Fabricus); conditions: Heliothis virescens; read-out: LC50 Tobacco Budworm
Text: (§1) Test formulations and procedures used for evaluation are as follows:
FD50 = The concentration of insecticide required to reduce insect

[2] = tested on: Tobacco Budworm 1st Instar; experiment: Tobacco budworm initial test, treated eggs / newly hatched (1st instar) larvae on treated cotton leaves; assay type: in vivo, Heliothis virescens (Fabricus)
Protocol: as §1
A. 100 mg of the test material is weighed, placed in a funnel over a 113 g narrow-mouth bottle, rinsed into the bottle with a 35 mL scoop of acetone, followed by a 35 mL scoop of water and another 35 mL scoop of acetone to yield 1000 ppm in 65% acetone. If the material is not soluble, it is broken up with a glass rod and used as a suspension.
B. This stock solution ("A") is used to make 300 ppm solutions or suspensions by pipetting 30 mL of "A" into a bottle containing 70 mL of 50% acetone to yield 300 ppm. Further dilutions in 50% acetone are made as required.
C. Tests requiring 10 ppm acetone solutions: 1 mL of "A" is pipetted into 99 mL of acetone to yield 10 ppm. Additional dilutions are made using 50% acetone as required.
Tobacco Budworm--Heliothis virescens (Fabricus)
A cotton plant with two true leaves expanded is dipped for three seconds with agitation in 300 ppm solution. A 1.27 to 1.91 cm square of cheesecloth with about 50 to 100 budworm eggs 0-24 hours old is also dipped in the test solution and placed on a leaf of the cotton plant, all being placed in the hood to dry. The leaf with the treated budworm eggs is removed from the plant and placed in a 226 g Dixie cup with a wet 5 cm piece of dental wick and covered with a lid. The other leaf is placed in a similar cup with a wick and a piece of cheesecloth infested with 50-100 newly hatched larvae is added before covering the cup with a lid. After three days at 80° F., 50% relative humidity, observations of egg hatch are made, as well as kill of newly hatched larvae, any inhibition of feeding, or interference of any sort with normal development.

Row | SMILES | Mortality Rating Southern Armyworm (Southern Armyworm; 10 ppm) | Mortality Rating Southern Armyworm (Southern Armyworm; 100 ppm) | Mortality Rating Southern Armyworm (Southern Armyworm; 1000 ppm) | LC50 (Southern Armyworm) [µg/mL] | LC50 Southern Armyworm (Southern Armyworm; southern armyworm, in vivo) [ppm] | Mortality Rating Tobacco Budworm 3rd Instar ([1]; 10 ppm) | Mortality Rating Tobacco Budworm 3rd Instar ([1]; 100 ppm) | Mortality Rating Tobacco Budworm 3rd Instar ([1]; 1000 ppm) | LC50 (Tobacco Budworm) [µg/mL] | reduced feeding (R) Tobacco Budworm 3rd Instar ([1]; 100 ppm) | Mortality Rating Tobacco Budworm 1st Instar ([2]; 10 ppm) | Mortality Rating Tobacco Budworm 1st Instar ([2]; 100 ppm) | reduced feeding (R) Tobacco Budworm 1st Instar ([2]; 100 ppm) | Mortality Rating Tobacco Budworm 1st Instar ([2]; 300 ppm) | reduced feeding (R) Southern Armyworm (Southern Armyworm; 100 ppm)
1 | N=C(NN=Cc1ccc(C(F)(F)F)cc1)N(N=Cc1ccc(C(F)(F)F)cc1)C(=O)N1CCCC1 [CF3 / CF3 / (CH2)4] | 9 (100%) | 9 (100%) | 9 (100%) | 18 (≈ 36.1 µM) | 14 | 0 (No effect) | 4 (46-55%) | 9 (100%) | 1000 (≈ 2010 µM) | – | – | – | – | – | –
2 | N=C(NN=Cc1ccc(C(F)(F)F)cc1)NN=Cc1ccc(C(F)(F)F)cc1 [CF3 / HCl] | 0 (No effect) | 9 (100%) | 9 (100%) | – | – | – | 0 (No effect) | 5 (56-65%) | – | R | 0 (No effect) | 0 (No effect) | R | 9 (100%) | –
3 | CN(C)C(=O)N(N=Cc1ccc(OC(F)(F)F)cc1)C(=N)NN=Cc1ccc(OC(F)(F)F)cc1 [CF3 O / CF3 O / CH3 / CH3] | 9 (100%) | 9 (100%) | 9 (100%) | – | – | – | 3 (36-45%) | 9 (100%) | 77 (≈ 153 µM) | – | – | – | – | – | –
4 | N=C(NN=Cc1ccc(Cl)cc1)NN=Cc1ccc(Cl)cc1 [Cl / Base] | 0 (No effect) | 0 (No effect) | 9 (100%) | – | – | – | – | 0 (No effect) | – | – | – | – | – | 5 (56-65%) | –
5 | N=C(NN=Cc1ccc(Cl)cc1)NN=Cc1ccc(Br)cc1 [Cl / Br / HCl] | – | 2 (26-35%) | 9 (100%) | – | – | – | – | 0 (No effect) | – | – | – | – | – | 0 (No effect) | R
6 | CN(C)C(=O)N(N=Cc1ccc(Cl)cc1)C(=N)NN=Cc1ccc(Cl)cc1 [Cl / Cl / CH3 / CH3] | – | 0 (No effect) | 9 (100%) | – | – | – | 0 (No effect) | 0 (No effect) | – | – | – | – | – | 0 (No effect) | –
7 | N=C(NN=Cc1ccc(F)cc1)NN=Cc1ccc(F)cc1 [F / B] | – | 2 (26-35%) | 9 (100%) | – | – | – | – | 3 (36-45%) | – | – | – | 0 (No effect) | – | 0 (No effect) | –
8 | CN(C)C(=O)N(N=Cc1ccc(OC(F)(F)C(Cl)Cl)cc1)C(=N)NN=Cc1ccc(OC(F)(F)C(Cl)Cl)cc1 [HCCl2 CF2 O / HCCl2 CF2 O / CH3 / CH3] | – | 9 (100%) | 9 (100%) | 26 (≈ 41 µM) | – | – | 2 (26-35%) | 0 (No effect) | 140 (≈ 221 µM) | – | – | – | – | – | –
9 | N=C(NN=Cc1ccc(OC(F)(F)C(F)F)cc1)NN=Cc1ccc(OC(F)(F)C(F)F)cc1 [HCF2 CF2 O / B, 1,3-bis{[p-(tetrafluoroethoxy)benzylidene]-amino}guanidine] | 0 (No effect) | 9 (100%) | 9 (100%) | – | – | – | 0 (No effect) | 9 (100%) | – | – | – | 0 (No effect) | R | 9 (100%) | –
10 | N=C(NN=Cc1ccc(OC(F)F)cc1)NN=Cc1ccc(OC(F)F)cc1 [HCF2 O / B] | 0 (No effect) | 6 (66-75%) | 9 (100%) | – | – | – | – | 0 (No effect) | – | – | – | – | – | 0 (No effect) | –
11 | CN(C)C(=O)N(N=Cc1ccc(OC(F)F)cc1)C(=N)NN=Cc1ccc(OC(F)F)cc1 [HCF2 O / HCF2 O / CH3 / CH3] | 0 (No effect) | 9 (100%) | 9 (100%) | 75 (≈ 160 µM) | – | – | – | 0 (No effect) | – | – | – | – | – | 0 (No effect) | –
12 | CNC(=O)N(N=Cc1ccc(OC(F)F)cc1)C(=N)NN=Cc1ccc(OC(F)F)cc1 [HCF2 O / HCF2 O / CH3 / H] | – | 0 (No effect) | 9 (100%) | – | – | – | – | 0 (No effect) | – | – | – | – | – | 7 (76-85%) | –
13 | N=C(NN=Cc1ccc(OC(F)F)cc1)NN=Cc1ccc(OC(F)F)cc1 [HCF2 O / S] | 0 (No effect) | 8 (86-99%) | 9 (100%) | – | – | – | – | 0 (No effect) | – | – | – | – | – | 0 (No effect) | –
14 | CN(C)C(=O)N(N=Cc1ccc(OC(F)(F)C(F)Cl)cc1)C(=N)NN=Cc1ccc(OC(F)(F)C(F)Cl)cc1 (centres unmarked) [drawing 40 / drawing 41 / CH3 / CH3] | 9 (100%) | 9 (100%) | 9 (100%) | – | – | 0 (No effect) | 4 (46-55%) | 9 (100%) | 201 (≈ 334 µM) | – | – | – | – | – | –
